In patent publication US20230381121A1, “N-PALMITOYLETHANOLAMIDE AND MELATONIN FOR USE IN THE TREATMENT OF AUTISM SPECTRUM DISORDER AND OTHER NEUROBEHAVIORAL DISORDERS SIMILARLY ACCOMPANIED BY RESTLESSNESS, IRRITABILITY, SLEEP DISORDERS, AND POTENTIALLY STEREOTYPIES” (priority 2022, published 2023):
“Also recorded” adds a separate entry of the source.

Assays:
[1] = system: mice with a simil-autistic phenotype; conditions: cited from earlier work
autistic children = conditions: um-PEA 600 mg/day, 3-month treatment; cited from earlier work
BTBR T+tf/J (BTBR) mice [2] = test: Self Grooming test in BTBR mice; assay type: in vivo; conditions: melatonin 0.1 mg/kg orally for 10 days, FIG. 15D
Description: (§1) Furthermore, experimental tests were carried out to determine the synergy of the PEA-Melatonin-DHA combination administered orally to genetically modified BTBR T+tf/J (BTBR) mice, an animal model of neurobehavioral disorders of the ASD type.
(§2) To determine the synergy of a PEA-um, melatonin and DHA combination, a second experimentation was performed, using a different animal model useful for the study of neurobehavioral disorders, and more precisely BTBR mice. […]
(§3) The animals underwent the following behavioral tests: • The social interaction test, also known as a 3-chamber social test (FIGS. 2A, 2B and FIGS. 15A, 15B) to evaluate i) the interaction time of the animals with an unknown mouse and ii) the sociability index (ratio between the time spent by the mouse exploring the area without and with the new companion). […] In this phase of the test, parameters such as the time spent by the animal exploring i) the chambers and ii) the unfamiliar mouse were detected. • The Novel Object Recognition Test or NOR test (FIGS. 3A, 3B) to examine cognition and recognition memory by calculating the time spent by the animal exploring new objects with respect to familiar ones. […] The exploration time was counted from the moment the mice directly looked at and smelled the object at a distance of less than 2 cm. […]

[3] = system: mice in which an autistic phenotype was induced by valproic acid (VPA); test: VPA injection model of autism: overall activity in the study; assay type: in vivo, C57/BL6 mice
Description: (§4) To evaluate the synergy of a combination PEA-um and melatonin, experimental tests were carried out by oral administration (gastric tube) of a mixture of um-PEA and melatonin (approximately 10:1 ratio) at a dose of 10 mg/kg for two weeks in mice in which an autistic phenotype was induced by a single injection of valproic acid in the form of sodium valproate (VPA).
(§5) Healthy male C57/BL6 mice fed ad libitum and housed in cages with controlled sleep/wake cycles were used in the first experimentation. […]
(§6) The animals underwent the following behavioral tests: • The social interaction test, also known as a 3-chamber social test (FIGS. 2A, 2B and FIGS. 15A, 15B) to evaluate i) the interaction time of the animals with an unknown mouse and ii) the sociability index (ratio between the time spent by the mouse exploring the area without and with the new companion). […] In this phase of the test, parameters such as the time spent by the animal exploring i) the chambers and ii) the unfamiliar mouse were detected. • The Novel Object Recognition Test or NOR test (FIGS. 3A, 3B) to examine cognition and recognition memory by calculating the time spent by the animal exploring new objects with respect to familiar ones. […]

BTBR T+tf/J (BTBR) mice [4] = test: Marble Burying test in BTBR mice; assay type: in vivo; conditions: melatonin 0.1 mg/kg orally for 10 days, FIG. 15C
Description: as §1, §2, §3

[5] = system: mice in which an autistic phenotype was induced by valproic acid (VPA); test: Thermal Nociception test (hot plate) in VPA mice; assay type: in vivo, C57/BL6 mice; conditions: melatonin at 1 mg/kg per os daily for 14 days, the worsening is significant, FIG. 6
Description: as §4, §5, §6

BTBR T+tf/J (BTBR) mice [6] = test: Social interaction test and 3-chamber social interaction test in BTBR mice; assay type: in vivo; conditions: melatonin 0.1 mg/kg orally for 10 days
Description: as §1, §2, §3

SMILES	altered behavioral status [1]	expression of the pro-inflammatory hippocampal and serum cytokines IL-6, IL-1β and TNF-α [1]	adverse effects (autistic children)	aggressiveness, cognitive and behavioral skills, and communication (autistic children)	stereotyped repetitive behaviors (Self Grooming) (BTBR T+tf/J (BTBR) mice [2])	activity in the assessments of the VPA study (social interaction, sociability index, NOR, stereotypies, EPM) ([3]; melatonin at 1 mg/kg per os daily for 14 days, 1 mg/kg)	activity in the present study (VPA model) ([3]; melatonin at a dose of 10 mg/kg per os daily for 14 days)	stereotyped repetitive behaviors (Marble Burying) (BTBR T+tf/J (BTBR) mice [4])	VPA-induced pain insensitivity (hot plate) [5]	social interaction behavioral test (BTBR T+tf/J (BTBR) mice [6]; FIG. 15A)	3-chamber social interaction test: side of the area where time is spent (BTBR T+tf/J (BTBR) mice [6]; FIG. 15B)
CCCCCCCCCCCCCCCC(=O)NCCO [um-PEA, Ultra-micronized palmitoylethanolamide]	modulating	reducing	without adverse effects	improves	–	–	–	–	–	–	–
COc1ccc2[nH]cc(CCNC(C)=O)c2c1 [melatonin, N-acetyl-5-methoxy tryptamine]	–	–	–	–	no improvement	inactive; also recorded: never shown to be active	active	no improvement	worsened	no improvement	continuing to spend their time in the empty side
